# Reference: ChEMBL document CHEMBL5038611, “Design, synthesis and bioevaluation of 6-aryl-1-(3,4,5-trimethoxyphenyl)-1H-benzo[d]imidazoles as tubulin polymerization inhibitors” (Eur J Med Chem, 2021)
# Activity calls are given as the source filed them. The calls are words filed in the database; no cut-off is given here.
# Experiments:
# A549 = assay: Antiproliferative activity against human A549 cells assessed as reduction in cell viability incubated for 72 hrs by MTT assay; assay type: functional, cell-based; details: A549, 72 h
# MCF7 [1] = assay: Antiproliferative activity against human MCF7 cells assessed as reduction in cell viability incubated for 72 hrs by MTT assay; assay type: functional, cell-based; details: MCF7, 72 h
# SGC-7901 = assay: Antiproliferative activity against human SGC-7901 cells assessed as reduction in cell viability incubated for 72 hrs by MTT assay; assay type: functional, cell-based; details: SGC-7901, 72 h
# MCF7 [2] = assay: Induction of cell cycle arrest in human MCF7 cells assessed as accumulation of cells at G2/M phase at 1 fold IC50 measured after 24 hrs by flow cytometry (reference value: 11 %); assay type: functional
# MCF7 [3] = assay: Induction of apoptosis in human MCF7 cells assessed as late apoptotic cells at 2 fold IC50 after 48 hrs by Annexin-V-FITC/PI-staining based flow cytometric analysis (reference value: 0.556%); assay type: functional
# MCF7 [4] = assay: Induction of apoptosis in human MCF7 cells assessed as late apoptotic cells at 3 fold IC50 after 48 hrs by Annexin-V-FITC/PI-staining based flow cytometric analysis (reference value: 0.556%); assay type: functional
# MCF7 [5] = assay: Induction of cell cycle arrest in human MCF7 cells assessed as accumulation of cells at G2/M phase at 0.5 fold IC50 measured after 24 hrs by flow cytometry (reference value: 11 %); assay type: functional
# Tubulin (Homo sapiens) [6] = target: T1, Tubulin (Homo sapiens) (UniProt P68371+Q9H4B7+P0DPH7+P68366+Q13509+Q71U36+P04350+Q3ZCM7+P07437+P68363+Q9BQE3+Q6PEY2+Q13885+Q9BVA1+Q9BUF5); assay: Inhibition of microtubule polymerization in human MCF7 cells assessed as disorganisation of microtubule by measuring short and wrapped structure at 2 times IC50 incubated for 24 hrs by DAPI staining based immunofluorescence assay; assay type: cell-based
# MCF7 [7] = assay: Induction of apoptosis in human MCF7 cells assessed as viable cells at 1 fold IC50 after 48 hrs by Annexin-V-FITC/PI-staining based flow cytometric analysis (reference value: 96.2%); assay type: functional
# 4T1 = assay: Antitumor activity against mouse 4T1 cells xenografted in BALB/c mouse assessed as reduction in tumor weight at 2.5 mg/kg, iv administered every 2 days for 2 weeks; assay type: functional; set-up: scale not given: the % may be the effect or the level left
# MCF7 [8] = assay: Induction of apoptosis in human MCF7 cells assessed as necrotic cells at 3 fold IC50 after 48 hrs by Annexin-V-FITC/PI-staining based flow cytometric analysis (reference value: 1.61%); assay type: functional
# [9] = Toxicity in BALB/c nude mouse xenografted with human MCF7 cells assessed as effect on spleen at 2.5 mg/kg, iv administered every 2 days for 2 weeks; assay type: organism-based; details: in vivo, 336 h
# MCF7 [10] = assay: Induction of apoptosis in human MCF7 cells assessed as necrotic cells at 2 fold IC50 after 48 hrs by Annexin-V-FITC/PI-staining based flow cytometric analysis (reference value: 1.61%); assay type: functional
# MCF7 [11] = assay: Induction of apoptosis in human MCF7 cells assessed as early apoptotic cells at 1 fold IC50 after 48 hrs by Annexin-V-FITC/PI-staining based flow cytometric analysis (reference value: 1.59%); assay type: functional
# MCF7 [12] = assay: Induction of cell cycle arrest in human MCF7 cells assessed as accumulation of cells at G2/M phase at 2 fold IC50 measured after 24 hrs by flow cytometry (reference value: 11 %); assay type: functional
# [13] = Toxicity in BALB/c nude mouse xenografted with mouse 4T1 cells assessed as body weight loss at 2.5 mg/kg, iv administered every 2 days for 2 weeks relative to control; assay type: organism-based; details: in vivo, 336 h
# Tubulin (Homo sapiens) [14] = target: T1, Tubulin (Homo sapiens); assay: Binding affinity to colchicine binding site of tubulin (unknown origin) assessed as decrease in fluorescence of colchicine-tubulin complex by fluorescence based assay; assay type: protein-complex assay
# [15] = Toxicity in BALB/c nude mouse xenografted with human MCF7 cells assessed as effect on liver at 2.5 mg/kg, iv administered every 2 days for 2 weeks; assay type: organism-based; details: in vivo, 336 h
# MCF7 [16] = assay: Inhibition of cell migration in human MCF7 cells measured after 24 hrs by phase-contrast microscopy based wound healing assay; assay type: functional; details: dose 25-50 nM
# [17] = Toxicity in BALB/c nude mouse xenografted with human MCF7 cells assessed as effect on heart at 2.5 mg/kg, iv administered every 2 days for 2 weeks; assay type: organism-based; details: in vivo, 336 h
# MCF7 [18] = assay: Induction of apoptosis in human MCF7 cells assessed as necrotic cells at 1 fold IC50 after 48 hrs by Annexin-V-FITC/PI-staining based flow cytometric analysis (reference value: 1.61%); assay type: functional
# MCF7 [19] = assay: Induction of apoptosis in human MCF7 cells assessed as late apoptotic cells at 1 fold IC50 after 48 hrs by Annexin-V-FITC/PI-staining based flow cytometric analysis (reference value: 0.556%); assay type: functional
# MCF7 [20] = assay: Induction of apoptosis in human MCF7 cells assessed as viable cells at 3 fold IC50 after 48 hrs by Annexin-V-FITC/PI-staining based flow cytometric analysis (reference value: 96.2%); assay type: functional
# MCF7 [21] = assay: Induction of apoptosis in human MCF7 cells assessed as early apoptotic cells at 3 fold IC50 after 48 hrs by Annexin-V-FITC/PI-staining based flow cytometric analysis (reference value: 1.59%); assay type: functional
# MCF7 [22] = assay: Induction of apoptosis in human MCF7 cells assessed as viable cells at 2 fold IC50 after 48 hrs by Annexin-V-FITC/PI-staining based flow cytometric analysis (reference value: 96.2%); assay type: functional
# Sus scrofa = species: Sus scrofa; assay: Inhibition of porcine brain tubulin polymerization measured every 1 min for 90 mins by microplate based assay in the presence of GTP
# MCF7 [23] = assay: Induction of apoptosis in human MCF7 cells assessed as early apoptotic cells at 2 fold IC50 after 48 hrs by Annexin-V-FITC/PI-staining based flow cytometric analysis (reference value: 1.59%); assay type: functional
# [24] = Toxicity in BALB/c nude mouse xenografted with human MCF7 cells assessed as effect on kidney at 2.5 mg/kg, iv administered every 2 days for 2 weeks; assay type: organism-based; details: in vivo, 336 h
compound,measurement,setting,value
COc1cc(-n2cnc3ccc(-c4cccc(F)c4)cc32)cc(OC)c1OC,IC50,A549,5.27 µM
same,IC50,MCF7 [1],2.35 µM
same,IC50,SGC-7901,2.49 µM
COc1cc(-n2cnc3ccc(-c4ccccc4)cc32)cc(OC)c1OC,IC50,A549,3.06 µM
same,IC50,MCF7 [1],2.29 µM
same,IC50,SGC-7901,0.29 µM
COc1cc(-n2cnc3ccc(-c4ccc(C)cc4F)cc32)cc(OC)c1OC,IC50,A549,> 10 µM
same,IC50,MCF7 [1],0.056 µM
same,IC50,SGC-7901,5.65 µM
COc1ccc(-c2ccc3ncn(-c4cc(OC)c(OC)c(OC)c4)c3c2)cc1,IC50,A549,> 10 µM
same,IC50,MCF7 [1],0.21 µM
same,IC50,SGC-7901,0.082 µM
COc1cc(-n2cnc3ccc(-c4ccc(F)cc4)cc32)cc(OC)c1OC,IC50,A549,6.74 µM
same,IC50,MCF7 [1],1.77 µM
same,IC50,SGC-7901,3.5 µM
COc1cc(-n2cnc3ccc(-c4cc(F)ccc4F)cc32)cc(OC)c1OC,IC50,A549,7.94 µM
same,IC50,MCF7 [1],6.42 µM
same,IC50,SGC-7901,6.59 µM
COc1cc(-n2cnc3ccc(-c4cccc(Cl)c4)cc32)cc(OC)c1OC,IC50,A549,7.05 µM
same,IC50,MCF7 [1],3.12 µM
same,IC50,SGC-7901,1.49 µM
COc1cc(-n2cnc3ccc(-c4cccc(C)c4)cc32)cc(OC)c1OC,IC50,A549,3.82 µM
same,IC50,MCF7 [1],0.36 µM
same,IC50,SGC-7901,1.24 µM
COc1ccc(-c2ccc3ncn(-c4cc(OC)c(OC)c(OC)c4)c3c2)cc1O,Activity,MCF7 [2],22%
same,Activity,MCF7 [3],10.4%
same,Activity,MCF7 [4],11.4%
same,Activity,MCF7 [5],15%
same,inhibition,Tubulin (Homo sapiens) [6],Active
same,Activity,MCF7 [7],75.1%
same,Activity,4T1,52%
same,Activity,MCF7 [8],0.271%
same,Activity,[9],Non-Toxic
same,Activity,MCF7 [10],0.96%
same,Activity,MCF7 [11],16%
same,Activity,MCF7 [12],72%
same,Activity,[13],Non-Toxic
same,Activity,Tubulin (Homo sapiens) [14],Active
same,Activity,[15],Non-Toxic
same,IC50,A549,0.2 µM
same,inhibition,MCF7 [16],Dose-Dependent Effect
same,Activity,[17],Non-Toxic
same,IC50,MCF7 [1],0.037 µM
same,Activity,MCF7 [18],1.51%
same,Activity,MCF7 [19],4.4%
same,Activity,MCF7 [20],50.6%
same,Activity,MCF7 [21],37.6%
same,Activity,MCF7 [22],52.8%
same,inhibition,Sus scrofa,Dose-Dependent Effect
same,IC50,SGC-7901,0.044 µM
same,Activity,MCF7 [23],35.6%
same,Activity,[24],Non-Toxic
COc1cccc(-c2ccc3ncn(-c4cc(OC)c(OC)c(OC)c4)c3c2)c1,IC50,A549,3.18 µM
same,IC50,MCF7 [1],1.61 µM
same,IC50,SGC-7901,3.31 µM
COc1cc(-n2cnc3ccc(-c4ccc(C(C)=O)cc4)cc32)cc(OC)c1OC,IC50,A549,2.51 µM
same,IC50,MCF7 [1],1.54 µM
same,IC50,SGC-7901,0.45 µM
COc1ccccc1-c1ccc2ncn(-c3cc(OC)c(OC)c(OC)c3)c2c1,IC50,A549,4.32 µM
same,IC50,MCF7 [1],1.75 µM
same,IC50,SGC-7901,5.05 µM
COc1ccc(-c2ccc3ncn(-c4cc(OC)c(OC)c(OC)c4)c3c2)cc1F,IC50,A549,1.43 µM
same,IC50,MCF7 [1],0.52 µM
same,IC50,SGC-7901,0.43 µM
COc1cc(-n2cnc3ccc(-c4ccc(O)cc4)cc32)cc(OC)c1OC,IC50,A549,5.09 µM
same,IC50,MCF7 [1],4.16 µM
same,IC50,SGC-7901,> 10 µM
